The numbers were not newly measured in patent US7696365B2 (Chugai Seiyaku Kabushiki Kaisha, priority 2003, dated 2010), which cites them from elsewhere.

Series [1] deals with human breast cancer cells.
In series [2] the test system is muscle (M) isoform of CPT-I. The conditions noted are these: read-out: IC50 of malonyl-CoA inhibition, muscle isoform.

`CCCCCCCCCCCCCCOc1ccc(C(=O)O)o1` [TOFA, 5-(tetradecyloxy)-2-furoic acid]: in series [1] (breast carcinoma cells), the malonyl-CoA level was 60 % of the control. Moreover, in series [1] (human breast cancer cells and xenografts), the antitumor activity result is given as “does not show any antitumor activity”.
Regarding `CC(C)(COP(=O)(O)OP(=O)(O)OC[C@H]1O[C@@H](n2cnc3c(N)ncnc32)[C@H](O)[C@@H]1OP(=O)(O)O)[C@@H](O)C(=O)NCCC(=O)NCCSC(=O)CC(=O)O` [malonyl-CoA, Malonyl-CoA], the IC50 in series [2] was 30 nM.
